Data on 13 compounds can be found in patent US9107814B2, “Micelle composition of polymer and passenger drug” (Wisconsin Alumni Research Foundation, priority 2005, dated 2015).

A short description of data set [1]: octanol-water partition coefficient by microemulsion electrokinetic chromatography (MEEKC). The settings on record: for log Po/w: pH 7.00 running buffer, ± standard deviation (n = 3).
Description: (§1) The octanol-water partition coefficient of geldanamycin was determined by microemulsion electrokinetic chromatography.
(§2) Running buffer was prepared by titration of 25-mM sodium phosphate monobasic with 50-mM sodium tetraborate to pH 7.00, and 1.44 g of sodium dodecyl sulfate, 6.49 g of 1-butanol, and 0.82 g of heptane were made up to 100 ml with phosphate-borate buffer. The running buffer was ultrasonicated for 30 min in a closed 250-ml flask in ice water (G112SP1 Special Ultrasonic Cleaner, Laboratory Supplies Company Inc., Hicksville, N.Y.). […] Compounds and standards (n=3) were dissolved in the running buffer (0.05 mg/ml) with 0.5 μL/ml of nitromethane and 0.5 μL/ml of 1-phenyldodecane by ultrasonication (10 min) in a closed tube and centrifuged (16000×g, 3 min) to degas. A BioFocus 3000 capillary electrophoresis system (Bio-Rad, Hercules, Calif.) equipped with a 50-μm ID×37-cm uncoated fused-silica column (Polymicron Technologies LLC, Phoenix, Ariz.) was used for MEEKC experiments. The column was prewashed with 1-M NaOH for 5 min and before runs with 0.1-M NaOH for 1 min, ddH2O for 1 min, and running buffer for 1 min at 100 psi (690 kPa). Running conditions were 10 kV (ca. 30-35 μA, 30 min/run) at 20° C. with 1-psi·s injections (6.9 kPa·s) and detection at 210 and 232 nm. Log Po/w and retention factors, k′, were calculated using the equations:
(§3) [formula] [formula] where tr, t0, and tme are retention times of the prodrug, nitromethane, and 1-phenyldodecane, respectively. Fitting parameters a and b were determined by linear regression of known standards: pyridine, phenol, benzoic acid, anisole, benzene, toluene, dodecanoic acid, benzopyrene, and pyrene (R^2=0.996, Excel® 2003, Microsoft Corp.).
Data set [2] is described as follows: geldanamycin prodrug loading into and release from PEG-b-PCL micelles. The settings on record: for Diff Coef: 0.5 mM PEG-b-PCL (5000:10000 Da) micelles, pH 7.4 phosphate buffer, 37° C., 10000MWCO dialysis; for w/w drug/carrier / Conc: 0.5 mM PEG-b-PCL micelles; for w/w drug/carrier: target 25% wt loading; for Conc: target […]; for time after which almost/substantially all the drug is released: prodrug loaded micelles; for fraction released: prodrug in micelles. The format is physicochemical. As to the method: Drug diffusion was calculated as described in Forrest and Kwon, 2005 (Journal of Controlled Release).
PEG-PCL micelles are prepared by the drop-wise addition of geldanamycin prodrug and PEG-PCL dissolved in a miscible solvent, acetone, to vigorously stirred water, followed by removal of the solvent by N2 purge, and 0.2-μm filtration. Alternatively, the solution may be centrifuged to remove unincorporated and aggregated drug. The final solvent to water ratio is between about 0.1 and about 5, preferably between about 0.5 and about 4, and more preferably about 2. The micelle solution should be delivered at a rate of between about 2 s/drop and about 60 s/drop, preferably between about 5 s/drop and about 30 s/drop, and more preferably between about 10 s/drop and about 20 s/drop.

Data set [3] relates to MDA-MB-468 breast cancer cell line. Nature of the data set: MTS cytotoxicity assay. The format is cell-based. The settings on record: MDA-MB-468, 4 days, drugs in 1% DMSO. As to the method:
Cytotoxicities of the drugs to the MDA-MB-468 breast cancer cell line (ATCC) were determined. Cells are plated at a density of 3000 cells/well into 96 well plates (100 μl/well DMEM medium). After 24 hours, drugs were added dissolved in 1% DMSO. Cells were incubated with drugs for 4 days and toxicity determined using the MTS cytotoxicity assay according to manufacturer's directions (Promega, Madison, Wis.).

Data set [4] in a line: paclitaxel prodrug loading and sizing of PEG-b-PCL micelles. The format is physicochemical. The settings on record: for Solubilized / prodrug:caprolactone / prodrug w/w %: 20% w/w prodrug loading in 0.5-mM PEG-b-PCL micelles; for Diameter (intensity): DLS, PEG-PCL micelles prepared at 20% w/w drug; for Solubilized (in parentheses): after evaporation to 25% of original volume and refiltration (0.22-μm). As to the method: The organic solvent was then removed by stirring under an air purge. Where stated, samples were further concentrated by prolonged evaporation under an air purge. After removing the organic solvent, PEG-b-PCL micelles were passed through a 0.22-μm polyestersulfone filter to remove insoluble material and unincorporated drug. In a typical experiment, […] of PEG-b-PCL was dissolved in 0.75 ml of dry acetone and added dropwise (50 μL/min) to 2 ml of ddH2O yielding 0.5-mM PEG-b-PCL micelles after removing the volatile organic solvent.
The incorporation of prodrugs into PEG-b-PCL micelles was verified by equivalent retention times in UV and RI chromatographs from gel permeation chromatography. PEG-b-PCL micelles were injected on an OHpak SB-806M GPC column (20-μL injections, 0.5-mM PEG-b-PCL, 0.75 ml/min of ddH2O, 10° C.) (Shodex, Kawasaki, Japan) and detected by refractive index (RI) and UV absorbance (232 nm). Prodrug loading into PEG-b-PCL micelles was quantitatively determined by reverse-phase HPLC (Alltech Econosphere 3-μm 4.6×50 mm) using a 0.01% (v/v) trifluoroacetic acid—ACN gradient (40-100% ACN, 50° C., 232-nm detection). Hydrodynamic diameters of PEG-b-PCL micelles were determined by dynamic light scattering (DLS) (NICOMP 380 ZLS, Particle Sizing Systems, Santa Barbara, Calif.). Data were analyzed by intensity-weighted Gaussian distribution fitting (NICOMP version 1.76). Measurements were made for a minimum of 10 min or at least 100×10^5 counts in channel 1.

Data set [5] can be described thus: physchem. Particulars: pH 7.
Description: as §1, §2, §3
For data set [6] the following is noted: cited from earlier work.

On to `CCCCCCCCCCCCCCCCNC1=C2CC(C)CC(OC)C(O)C(C)C=C(C)C(OC(N)=O)C(OC)C=CC=C(C)C(=O)NC(=CC1=O)C2=O` (stereo not shown) [17-amino-hexyldecyl-17-demethoxygeldanamycin], for which, in data set [1], the “Log Po/w” value is on record as 4.30. In addition, the “Diff Coef” value in data set [2] is on record as 1.69 × 10^−20 cm2/s. In addition, the w/w drug/carrier in data set [2] is listed as 20 ± 2%. Besides, in data set [2], the Conc is 1500 µg/mL. Also, in data set [2], the “time after which almost/substantially all the drug is released” value is recorded as “about 12 days”. Moreover, the fraction released in data set [2] (time 0 days) is on record as 0; in data set [2] (time 0.83 days) it was 0; in data set [2] (time 2 days), 0.1398; in data set [2] (time 4 days) it was 0.3551; in data set [2] (time 6 days) it was 0.3985; in data set [2] (time 8 days), 0.6364. For the same compound, the fraction released is 0.7517 in data set [2] (time 10 days) and 0.8238 in data set [2] (time 12 days).
On to `CCCCCCCCCCCC(=O)OCCNC1=C2CC(C)CC(OC)C(O)C(C)C=C(C)C(OC(N)=O)C(OC)C=CC=C(C)C(=O)NC(=CC1=O)C2=O` (stereo not shown) [17-aminoethyl-dodeconate-17-demethoxygeldanamycin], for which the “Log Po/w” value in data set [1] was 4.16. Further, the “Diff Coef” value in data set [2] is on record as 2.55 × 10^−20 cm2/s. For the same compound, the w/w drug/carrier in data set [2] is reported as 21 ± 2%. Besides, in data set [2], the Conc turned out to be 1600 µg/mL. Besides, in data set [2], the “time after which almost/substantially all the drug is released” value is “about 8 days”. Further, the fraction released is listed as 0 in data set [2] (time 0 days); 0.1688 in data set [2] (time 0.83 days); 0.2909 in data set [2] (time 2 days); 0.3431 in data set [2] (time 4 days); 0.8531 in data set [2] (time 6 days); 0.9878 in data set [2] (time 8 days).
Regarding `CCCCCC(=O)OCCNC1=C2CC(C)CC(OC)C(O)C(C)C=C(C)C(OC(N)=O)C(OC)C=CC=C(C)C(=O)NC(=CC1=O)C2=O` (stereo not shown) [17-aminoethyl-hexonate-17-demethoxygeldanamycin], the IC50 in data set [3] stood at 240 nM.
As for `CCCCCCCCCCCCCCCC(=O)OCCNC1=C2CC(C)CC(OC)C(O)C(C)C=C(C)C(OC(N)=O)C(OC)C=CC=C(C)C(=O)NC(=CC1=O)C2=O` (stereo not shown) [17-aminoethyl-palmitate-17-demethoxygeldanamycin], the IC50 in data set [3] worked out at 350 nM. In addition, the “Diff Coef” value in data set [2] was 3.61 × 10^−20 cm2/s. For the same compound, the w/w drug/carrier in data set [2] amounted to 22 ± 5%. The Conc in data set [2] amounted to 1700 µg/mL. In data set [2], the “time after which almost/substantially all the drug is released” value was “about 8 days”. Further, the fraction released in data set [2] (time 0 days) is listed as 0; in data set [2] (time 0.83 days), 0.1695; in data set [2] (time 2 days) it was 0.2916; in data set [2] (time 4 days), 0.6116; in data set [2] (time 8 days), 0.9528.
`COC1C=CC=C(C)C(=O)NC2=CC(=O)C(NCCO)=C(CC(C)CC(OC)C(O)C(C)C=C(C)C1OC(N)=O)C2=O` (stereo not shown) [17-hydroxyethylamino-17-demethoxygeldanamycin, reference compound] returned an IC50 in data set [3] of 73 nM.
As for `CC(=O)O[C@H]1C(=O)[C@@]2(C)[C@H]([C@H](OC(=O)c3ccccc3)[C@]3(O)C[C@H](OC(=O)[C@H](O)[C@@H](NC(=O)c4ccccc4)c4ccccc4)C(C)=C1C3(C)C)[C@]1(OC(C)=O)CO[C@@H]1C[C@@H]2O` [Paclitaxel, reference compound], in data set [4], the Solubilized is under 0.2 mg/mL and the “prodrug:caprolactone” value is reported as <1 mmol:mol. Further, the chromatographic logP in data set [5] was found to be 4.4 ± 0.06.
For the compound `CCCCCC(=O)O[C@H]1C[C@H]2OC[C@@]2(OC(C)=O)[C@H]2[C@H](OC(=O)c3ccccc3)[C@]3(O)C[C@H](OC(=O)[C@H](O)[C@@H](NC(=O)c4ccccc4)c4ccccc4)C(C)=C([C@@H](OC(C)=O)C(=O)[C@]12C)C3(C)C` [Prodrug 4a], in data set [4], the Solubilized was 1.55 ± 0.04 mg/mL, the prodrug w/w % is 17.1%, the “prodrug:caprolactone” value is on record as 36.5 mmol:mol and the “Diameter (intensity)” value is 34 ± 4 nm. Besides, the “Solubilized (in parentheses)” value in data set [4] came out at 5.1 ± 0.5 mg/mL. Also, the “log Po/w” value in data set [1] came to 4.43 ± 0.06.
As for `CCCCCCCCCCCC(=O)O[C@H]1C[C@H]2OC[C@@]2(OC(C)=O)[C@H]2[C@H](OC(=O)c3ccccc3)[C@]3(O)C[C@H](OC(=O)[C@H](O)[C@@H](NC(=O)c4ccccc4)c4ccccc4)C(C)=C([C@@H](OC(C)=O)C(=O)[C@]12C)C3(C)C` [Prodrug 4b], in data set [4], the Solubilized was determined as 1.47 ± 0.03 mg/mL, the prodrug w/w % stood at 16.4%, the “prodrug:caprolactone” value is listed as 31.8 mmol:mol and the “Diameter (intensity)” value was determined as 27 ± 5 nm. The “Solubilized (in parentheses)” value in data set [4] came to 2.2 ± 0.5 mg/mL. Also, the “log Po/w” value in data set [1] is given as 4.59 ± 0.18.
With `CCCCCCCCCCCCCCCC(=O)O[C@H]1C[C@H]2OC[C@@]2(OC(C)=O)[C@H]2[C@H](OC(=O)c3ccccc3)[C@]3(O)C[C@H](OC(=O)[C@H](O)[C@@H](NC(=O)c4ccccc4)c4ccccc4)C(C)=C([C@@H](OC(C)=O)C(=O)[C@]12C)C3(C)C` [Prodrug 4c, 7-palmitate-paclitaxel], in data set [4], the Solubilized was 1.62 ± 0.03 mg/mL, the prodrug w/w % is reported as 21.6%, the “prodrug:caprolactone” value is recorded as 33.3 mmol:mol and the “Diameter (intensity)” value is on record as 44 ± 2 nm. Besides, the “Solubilized (in parentheses)” value in data set [4] is 3.0 ± 0.9 mg/mL. Moreover, the “log Po/w” value in data set [1] was found to be 4.48 ± 0.06.
Take `CCCCCC(=O)O[C@@H](C(=O)O[C@H]1C[C@@]2(O)[C@@H](OC(=O)c3ccccc3)[C@@H]3[C@]4(OC(C)=O)CO[C@@H]4C[C@H](O)[C@@]3(C)C(=O)[C@H](OC(C)=O)C(=C1C)C2(C)C)[C@@H](NC(=O)c1ccccc1)c1ccccc1` [Prodrug 5a]: in data set [4], the Solubilized was 1.42 ± 0.11 mg/mL, the prodrug w/w % turned out to be 17.8%, the “prodrug:caprolactone” value is given as 33.4 mmol:mol and the “Diameter (intensity)” value came to 32 ± 0 nm. Moreover, the “Solubilized (in parentheses)” value in data set [4] was over 3 mg/mL. For the same compound, the “log Po/w” value in data set [1] is given as 4.45 ± 0.03.
For the compound `CCCCCCCCCCCC(=O)OC(C(=O)OC1CC2(O)C(OC(=O)c3ccccc3)C3C4(OC(C)=O)COC4CC(O)C3(C)C(=O)C(OC(C)=O)C(=C1C)C2(C)C)C(NC(=O)c1ccccc1)c1ccccc1` (stereo not shown) [Prodrug 5b], in data set [4], the Solubilized is 1.57 ± 0.02 mg/mL, the prodrug w/w % is 17.3%, the “prodrug:caprolactone” value was 34.0 mmol:mol and the “Diameter (intensity)” value is on record as 28 ± 0 nm. Further, in data set [4], the “Solubilized (in parentheses)” value was over 3 mg/mL. The “log Po/w” value in data set [1] came out at 4.49 ± 0.03.
Consider `CCCCCCCCCCCCCCCC(=O)O[C@@H](C(=O)O[C@H]1C[C@@]2(O)[C@@H](OC(=O)c3ccccc3)[C@@H]3[C@]4(OC(C)=O)CO[C@@H]4C[C@H](O)[C@@]3(C)C(=O)[C@H](OC(C)=O)C(=C1C)C2(C)C)[C@@H](NC(=O)c1ccccc1)c1ccccc1` [Prodrug 5c, 2-palmitate-paclitaxel], for which, in data set [4], the Solubilized was 1.85 ± 0.05 mg/mL, the prodrug w/w % is recorded as 19.8%, the “prodrug:caprolactone” value was 40.0 mmol:mol and the “Diameter (intensity)” value was 37 ± 6 nm. Besides, the “Solubilized (in parentheses)” value in data set [4] is over 3 mg/mL. In data set [1], the “log Po/w” value amounted to 4.51 ± 0.04.
As for `CO[C@H]1/C=C\C=C(/C)C(=O)NC2=CC(=O)C(NCCN(C)C)=C(C[C@@H](C)C[C@H](OC)[C@H](O)[C@@H](C)/C=C(\C)[C@@H]1OC(N)=O)C2=O` [Prodrug 17DMAG], in data set [6], the MTD dog is listed as 8 mg/m^2.

Usually IC50 stands for the concentration needed to halve the response being measured. Broadly, the chromatographic logP is lipophilicity estimated from chromatographic retention. The low end stands for a more hydrophilic compound, the high end for a more lipophilic compound.
